# Measured values from patent US20180155757A1, “IDENTIFICATION OF BACTERIA THAT ARE RESISTANT TO CARBAPENEMS BY MEMBRANE IMPERVIOUSNESS” (BIOMÉRIEUX, priority 2015, published 2018).
# Like-named read-outs stand apart in the source and are kept apart here.
# Experiments:
# Assay in all cases: Etest MIC of indicator carbapenems on MH II agar without/with PMBN
# Type in all cases: cell-based
# [1] = tested on: Enterobacter aerogenes EA 5 (porin−); details: Klebsiella aerogenes
# Method: (§1) The determinations of antibiotic MIC were carried out on solid culture media with the Etest® method. To do this, Etest® strips (bioMérieux, France) were used: • Etest® Imipenem IM 32, and • Etest® Ertapenem ETP 32, and also solid culture media, differing from one another by virtue of their non-inhibitory concentrations of PMBN.
# (§2) These solid culture media are prepared in Petri dishes (0=145 mm; V=50 ml) on a base of MH II Agar (Becton Dickinson®, United States), more or less supplemented with PMBN. The PMBN concentrations range from 0 up to concentrations equivalent to one fifth of the MIC of PMBN (⅕ MICPMBN).
# (§3) Using a swab and the Retro C80™ rota-plater (bioMérieux, France), the culture media were inoculated with the bacteria, originating from an inoculum of 0.5 McFarland, prepared in 0.85% NaCl solution from colonies subcultured the day before on MH II agar.
# (§4) The various Etest® strips are then deposited on the surface of the culture media. After 16 to 20 hours of incubation at 35° C., the MICS were read.
# (§5) By way of indicator carbapenems according to the invention, in addition to imipenem (IM) and ertapenem (ETP), meropenem (MP) was also tested. Like the other two antibiotics, meropenem was used in the form of Etest® strips (Etest® Meropenem MP 32 from the company bioMérieux, France).
# (§6) The methods used to prepare the new culture media and to carry out the antibiotic-sensitivity tests are identical to those described above.
# [2] = tested on: K. pneumoniae 1108003 (KPC-3 producer)
# Method: as §1, §2, §3, §4, §5, §6
# [3] = tested on: E. cloacae 1008074 (VIM producer)
# Method: as §1, §2, §3, §4, §5, §6
# [4] = tested on: Enterobacter aerogenes EA 27 (porin−); details: Klebsiella aerogenes
# Method: as §1, §2, §3, §4, §5, §6
# [5] = tested on: E. aerogenes 1204048; details: in µg/mL
# Method: as §1, §2, §3, §4
# (§7) To do this, imipenem and ertapenem were used as indicator carbapenems. Non-inhibitory concentrations of PMBN, equivalent to concentrations of one tenth ( 1/10), one eighth (⅛) and one fifth (⅕) of the MIC of PMBN, were applied.
# (§8) In the light of the MICPMBN values previously identified, very predominantly much higher than 300 μg/ml, the following standard concentrations were retained and applied to the bacterial strains to be tested: 50, 100, 150, 200 and 300 μg/ml.
# as §5, §6
# [6] = tested on: K. pneumoniae 1002015
# Method: as §1, §2, §3, §4, §7, §8, §5, §6
# [7] = tested on: K. pneumoniae 1204034; details: K. pneumoniae 1204034 (membrane impermeability), Table 4a
# Method: as §1, §2, §3, §4, §7, §8, §5, §6
compound,measurement,setting,value
"C[C@@H](O)[C@H]1C(=O)N2C(C(=O)O)=C(S[C@@H]3CN[C@H](C(=O)Nc4cccc(C(=O)O)c4)C3)[C@H](C)[C@H]12 [ETP, ertapenem]",MIC,"[1]; E. aerogenes EA 5 (porin−), [PMBN] 0, Table 4",6 µg/mL
same,MIC,"[1]; E. aerogenes EA 5 (porin−), [PMBN] 50 μg/ml",2 µg/mL
same,MIC,"[1]; E. aerogenes EA 5 (porin−), [PMBN] 100 μg/ml",2 µg/mL
same,MIC,"[1]; E. aerogenes EA 5 (porin−), [PMBN] 150 μg/ml",1.5 µg/mL
same,MIC,"[1]; E. aerogenes EA 5 (porin−), [PMBN] 200 μg/ml",1 µg/mL
same,MIC,"[1]; EA 5 (porin−), [PMBN] 0, Table 2",32 µg/mL
same,MIC,"[1]; EA 5 (porin−), [PMBN] MIC/5",4 µg/mL
same,MIC,"[1]; EA 5 (porin−), [PMBN] MIC/8",4 µg/mL
same,MIC,"[1]; EA 5 (porin−), [PMBN] MIC/10",4 µg/mL
same,MIC,"[2]; [PMBN] 0, Table 4a",8 µg/mL
same,MIC,"[2]; [PMBN] 100, Table 4a",24 µg/mL
same,MIC,"[2]; [PMBN] 200, Table 4a",> 32 µg/mL
same,MIC,"[2]; [PMBN] 300, Table 4a",> 32 µg/mL
same,MIC,"[3]; [PMBN] 0, Table 4a",0.38 µg/mL
same,MIC,"[3]; [PMBN] 100, Table 4a",0.5 µg/mL
same,MIC,"[3]; [PMBN] 200, Table 4a",0.5 µg/mL
same,MIC,"[3]; [PMBN] 300, Table 4a",0.5 µg/mL
same,MIC,[4],0.125 µg/mL
same,MIC,"[4]; E. aerogenes EA 27 (porin−), [PMBN] 0, Table 4, read-out: MIC",> 32 µg/mL
same,MIC,"[4]; E. aerogenes EA 27 (porin−), [PMBN] 50 μg/ml, read-out: MIC",4 µg/mL
same,MIC,"[4]; E. aerogenes EA 27 (porin−), [PMBN] 100 μg/ml, read-out: MIC",1.5 µg/mL
same,MIC,"[4]; E. aerogenes EA 27 (porin−), [PMBN] 150 μg/ml, read-out: MIC",0.75 µg/mL
same,MIC,"[4]; E. aerogenes EA 27 (porin−), [PMBN] 200 μg/ml, read-out: MIC",0.19 µg/mL
same,MIC,"[4]; EA 27 (porin−), [PMBN] 0, Table 2, read-out: MIC",64 µg/mL
same,MIC,"[4]; EA 27 (porin−), [PMBN] MIC/8, read-out: MIC",0.25 µg/mL
same,MIC,"[4]; EA 27 (porin−), [PMBN] MIC/10, read-out: MIC",16 µg/mL
same,MIC,"[5]; E. aerogenes 1204048 (membrane impermeability), [PMBN] 0, Table 4a",>32
same,MIC,"[5]; E. aerogenes 1204048 (membrane impermeability), [PMBN] 100, Table 4a",16
same,MIC,"[5]; E. aerogenes 1204048 (membrane impermeability), [PMBN] 200, Table 4a",16
same,MIC,"[5]; E. aerogenes 1204048 (membrane impermeability), [PMBN] 300, Table 4a",8
same,MIC,"[5]; E. aerogenes 1204048, [PMBN] 0, Table 3",32
same,MIC,"[5]; E. aerogenes 1204048, [PMBN] MIC/5",2
same,MIC,"[5]; E. aerogenes 1204048, [PMBN] MIC/8",2
same,MIC,"[5]; E. aerogenes 1204048, [PMBN] MIC/10",4
same,MIC,"[6]; K. pneumoniae 1002015, [PMBN] 0, Table 3",32 µg/mL
same,MIC,"[6]; K. pneumoniae 1002015, [PMBN] MIC/5",1 µg/mL
same,MIC,"[6]; K. pneumoniae 1002015, [PMBN] MIC/8",2 µg/mL
same,MIC,"[6]; K. pneumoniae 1002015, [PMBN] MIC/10",4 µg/mL
same,MIC,"[6]; Klebsiella pneumoniae, 1002015, K. pneumoniae 1002015 (porin−), [PMBN] 0, Table 4, read-out: MIC",4 µg/mL
same,MIC,"[6]; Klebsiella pneumoniae, 1002015, K. pneumoniae 1002015 (porin−), [PMBN] 150 μg/ml, Table 4, read-out: MIC",0.5 µg/mL
same,MIC,"[6]; Klebsiella pneumoniae, 1002015, K. pneumoniae 1002015 (porin−), [PMBN] 200 μg/ml, Table 4, read-out: MIC",0.38 µg/mL
same,MIC,[7]; [PMBN] 0,> 32 µg/mL
same,MIC,[7]; [PMBN] 100,12 µg/mL
same,MIC,[7]; [PMBN] 200,3 µg/mL
same,MIC,[7]; [PMBN] 300,2 µg/mL
